Assay results as given in patent publication US10874631B2, “Altertoxin II as a selective inhibitor of Ewing family of tumor cells” (priority 2016, dated 2020).

Tests used:
Format in all cases: cell-based
[1] = test system: A204 rhabdomyosarcoma cells; assay: DNA damage response immunoblot (Chk1); conditions: concentrations up to 1 μM
Description: (§1) FIG. 9A-9B. Altertoxin II causes phosphorylation of CHK1 and 2 and p53 in Ewing sarcoma cells. Ewing sarcoma cells, A673, RD-ES, SK-ES-1, or rhabdomyosarcoma A204 cells were treated with altertoxin II at the concentrations indicated for 6 h (A) or 24 h (B) and whole-cell lysates prepared and proteins separated by SDS-PAGE. These samples were analyzed by immunoblotting for total and phosphorylated Chk1 and 2 and p53 (A).
(§2) Downstream activation of DNA damage response proteins by altertoxin II was subsequently evaluated.

[2] = test system: SK-ES-1 Ewing sarcoma cells; assay: DNA damage response immunoblot (Chk1); conditions: 100 nM and 1 μM, 24 h
Description: as §1, §2

[3] = test system: 4 Ewing sarcoma cell lines, including SK-ES-1 cells; assay: Cell cycle distribution by flow cytometry; conditions: each of 4 Ewing sarcoma lines
Description: FIG. 5A-5B. Altertoxin II causes accumulation of SK-ES-1 Ewing sarcoma cells in the S-phase of the cell cycle. Cell cycle analysis of SK-ES-1 cells by flow cytometry. (A) Histogram of DNA content after treatment with two different concentrations of ATX for 18 hours. (B) quantification of cells in each cell cycle phase.
The effects of altertoxin II on cell cycle distribution were evaluated in 4 Ewing sarcoma cell lines using flow cytometry.

[4] = test system: RD-ES; assay: SRB assay, growth inhibition; conditions: EWS
Description: (§3) FIG. 3A-3B. (A) The effects of altertoxin II were evaluated using the SRB assay in 6 Ewing sarcoma cell lines as compared to 4 other pediatric solid tumor cells lines. n≥3 independent experiments. (B) The effects of altertoxin II were evaluated by the Houghton laboratory using the alamar blue assay in an additional 6 Ewing sarcoma cell lines and potency compared to the activities in 5 rhabdomyosarcoma cell lines. n=3 independent experiments.
(§4) The effects of altertoxin II were studied in a larger panel of cell lines and the GI50, the concentration that causes 50% inhibition of cell growth, and the TGI, the concentration that caused total growth inhibition, were determined using the sulforhodamine b (SRB assay). The mean GI50 values shown graphically in FIG. 3A. The IC50, the concentration that causes 50% inhibition of cell proliferation, values were determined in a second panel of Ewing sarcoma and rhabdomyosarcoma cell lines using the altar blue assay and these values are presented in Table 2 and the mean in […].

[5] = test system: A673; assay: SRB assay, growth inhibition; conditions: A673, EWS
Description: as §3, §4

[6] = test system: SH-SY-5Y; assay: SRB assay, growth inhibition; conditions: NB
Description: as §3, §4

[7] = test system: D283; assay: SRB assay, growth inhibition; conditions: D283, Med
Description: as §3, §4

[8] = test system: A204; assay: SRB assay, growth inhibition; conditions: A204, RMS
Description: as §3, §4

[9] = test system: SK-N-BE2; assay: SRB assay, growth inhibition
Description: as §3, §4

[10] = test system: SK-ES-1; assay: SRB assay, growth inhibition
Description: as §3, §4

[11] = test system: Rh30; assay: alamar blue assay, proliferation; conditions: Rh30, Rhabdomyosarcoma
Description: as §3, §4

[12] = test system: ES-4; assay: alamar blue assay, proliferation; conditions: ES-4, Ewing Sarcoma
Description: as §3, §4

[13] = test system: Rh5; assay: alamar blue assay, proliferation; conditions: Rh5, Rhabdomyosarcoma
Description: as §3, §4

[14] = test system: ES-7; assay: alamar blue assay, proliferation; conditions: Homo sapiens, ES7, ES-7, Ewing Sarcoma
Description: as §3, §4

[15] = test system: Rh36; assay: alamar blue assay, proliferation; conditions: Rh36, Rhabdomyosarcoma
Description: as §3, §4

[16] = test system: Rh18; assay: alamar blue assay, proliferation; conditions: Homo sapiens, Rh18, Rhabdomyosarcoma
Description: as §3, §4

[17] = test system: Rh28; assay: alamar blue assay, proliferation; conditions: Rh28, Rhabdomyosarcoma
Description: as §3, §4

[18] = test system: TC-71; assay: alamar blue assay, proliferation; conditions: TC-71, Ewing Sarcoma
Description: as §3, §4

[19] = test system: Rh41; assay: alamar blue assay, proliferation; conditions: Homo sapiens, Rh41, Rhabdomyosarcoma
Description: as §3, §4

[20] = test system: ES-2; assay: alamar blue assay, proliferation; conditions: Homo sapiens, ES-2, Ewing Sarcoma, N = 3-6
Description: as §3, §4

[21] = test system: ES-8; assay: alamar blue assay, proliferation; conditions: Homo sapiens, ES8, ES-8, Ewing Sarcoma
Description: as §3, §4

[22] = test system: EW-8; assay: alamar blue assay, proliferation
Description: as §3, §4

[23] = test system: TC-32 cells; assay: R-loop marker S9.6 immunofluorescence; conditions: TC-32 nuclei, 24 h
Description: (§5) FIG. 8A-8B. The effects of 10 and 100 nM altertoxin II (ATXII) on 53BP1 foci were evaluated following a 6 h treatment of A673 cells by indirect immunofluorescence. (B) Immunofluorescence of R-loop marker S9.6 in TC-32 cells 24 h after ATXII treatment. Arrows indicate R-loops within nuclei.
(§6) Multiple investigators have shown that Ewing sarcoma cells undergo replication stress and R-loop accumulation.

[24] = test system: A673 Ewing sarcoma cells; assay: DNA damage response immunoblot (Chk1, Chk2); conditions: 10-300 nM, within 6 h
Description: as §1, §2

[25] = test system: Ewing sarcoma cell lines; assay: SRB assay panel, selectivity Ewing sarcoma vs other pediatric solid tumor cell lines; conditions: mean GI50, 6 Ewing sarcoma cell lines
Description: as §3, §4

[26] = test system: A673 Ewing sarcoma cells; assay: 53BP1 foci immunofluorescence; conditions: 10 nM and 100 nM, within 6 h
Description: as §5, §6

[27] = test system: Ewing sarcoma cells; assay: Panel of 5 pediatric cancer cell lines, selective cytotoxicity; conditions: 5 types of solid pediatric cancers

SMILES: O=C1CC[C@]2(O)c3c(ccc(O)c31)-c1ccc(O)c3c1[C@H]2[C@H]1O[C@H]1C3=O [altertoxin II]
- Chk1 phosphorylation [1]: Chk1 phosphorylation was not observed
- Chk1 phosphorylation [2]: Chk1 phosphorylation was also observed
- cell cycle distribution [3]: Concentration-dependent S-phase arrest
- GI50 ([4]; n ≥ 3): 14 nM
- TGI ([4]; total growth inhibitory concentration): 60 nM
- TGI [5]: 139 nM
- GI50 ([5]; Homo sapiens): 28 nM
- GI50 ([6]; Homo sapiens, SH-SY5Y): 560 nM
- TGI [6]: 920 nM
- GI50 [7]: 940 nM
- TGI [7]: 1700 nM
- TGI [8]: 1500 nM
- GI50 ([8]; Homo sapiens): 960 nM
- GI50 ([9]; Homo sapiens, SKNBE2, SK-N-BE2, NB): 1000 nM
- TGI ([9]; SK-N-BE2, NB): 2000 nM
- GI50 ([10]; Homo sapiens, SK-ES1, SK-ES-1, EWS): 35 nM
- TGI ([10]; SK-ES-1, EWS): 151 nM
- IC50 [11]: 750 ± 60 nM
- IC50 [12]: 20 ± 2 nM
- IC50 [13]: 1050 ± 230 nM
- IC50 [14]: 3 ± 1 nM
- IC50 [15]: 1030 ± 210 nM
- IC50 [16]: 990 ± 120 nM
- IC50 [17]: 790 ± 90 nM
- IC50 [18]: 4.6 ± 0.5 nM
- IC50 [19]: 1130 ± 300 nM
- IC50 [20]: 23 ± 4 nM
- IC50 [21]: 7 ± 1 nM
- IC50 ([22]; EW8, EW-8, Ewing Sarcoma, alamar blue): 6.5 ± 0.3 nM
- sensitivity of EW-8 cell line ([22]; EW-8 is resistant to PARP1 inhibitors): highly sensitive
- R-loop formation (S9.6 marker) [23]: increased formation of R-loops
- phosphorylation of Chk1 and Chk2 [24]: caused phosphorylation of checkpoint kinase 1 and 2
- selectivity of Ewing sarcoma cell lines vs other pediatric solid tumor cell lines [25]: 58 fold
- 53BP1 foci [26]: nuclear foci were noted
- selective cytotoxic activity against Ewing sarcoma cells [27]: potent, Ewing sarcoma-specific effects
